The record followed here is ChEMBL document CHEMBL4229532, “A series of camptothecin prodrugs exhibit HDAC inhibition activity” (Bioorg Med Chem, 2018).

The structures appear in SMILES notation. Active and inactive are the calls of the source. The calls are words filed in the database; no cut-off is given here.

Series [1] addresses T1, Protein deacetylase HDAC6 (Homo sapiens) (UniProt Q9UBN7).
T1 sequence (whole entry): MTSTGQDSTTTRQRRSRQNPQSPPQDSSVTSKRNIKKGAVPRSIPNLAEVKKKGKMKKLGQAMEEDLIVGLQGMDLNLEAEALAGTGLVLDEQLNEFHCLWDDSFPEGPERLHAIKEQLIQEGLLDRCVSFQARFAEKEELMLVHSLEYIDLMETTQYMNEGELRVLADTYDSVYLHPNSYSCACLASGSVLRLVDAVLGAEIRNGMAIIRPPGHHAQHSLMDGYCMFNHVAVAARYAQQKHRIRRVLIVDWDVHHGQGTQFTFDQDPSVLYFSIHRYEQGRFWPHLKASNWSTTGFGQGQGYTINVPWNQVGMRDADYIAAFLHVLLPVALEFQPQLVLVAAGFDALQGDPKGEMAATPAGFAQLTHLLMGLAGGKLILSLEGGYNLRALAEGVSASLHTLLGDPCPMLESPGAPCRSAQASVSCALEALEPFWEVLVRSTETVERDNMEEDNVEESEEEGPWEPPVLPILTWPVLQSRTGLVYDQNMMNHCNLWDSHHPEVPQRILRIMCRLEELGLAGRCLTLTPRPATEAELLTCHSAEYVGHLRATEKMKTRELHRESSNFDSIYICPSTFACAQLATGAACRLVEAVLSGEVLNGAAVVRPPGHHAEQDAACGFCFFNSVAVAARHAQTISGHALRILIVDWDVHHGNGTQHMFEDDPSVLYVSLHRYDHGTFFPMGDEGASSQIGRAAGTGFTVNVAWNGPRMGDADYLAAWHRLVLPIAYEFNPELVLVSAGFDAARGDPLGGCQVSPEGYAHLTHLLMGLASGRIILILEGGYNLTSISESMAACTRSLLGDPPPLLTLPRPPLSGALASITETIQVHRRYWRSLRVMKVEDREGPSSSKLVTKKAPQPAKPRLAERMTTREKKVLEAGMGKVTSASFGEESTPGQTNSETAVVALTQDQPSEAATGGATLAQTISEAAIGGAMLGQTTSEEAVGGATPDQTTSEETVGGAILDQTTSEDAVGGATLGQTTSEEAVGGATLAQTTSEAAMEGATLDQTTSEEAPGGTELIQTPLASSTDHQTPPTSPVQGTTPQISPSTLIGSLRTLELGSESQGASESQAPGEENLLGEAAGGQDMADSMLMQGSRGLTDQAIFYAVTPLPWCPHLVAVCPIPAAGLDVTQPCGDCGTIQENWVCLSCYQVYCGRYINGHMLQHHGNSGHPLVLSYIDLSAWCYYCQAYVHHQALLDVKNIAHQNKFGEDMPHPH
Kind of series: Inhibition of HDAC6 in human HCT116 cells assessed as increase in acetylated tubulin levels at 1 to 10 uM after 24 hrs by Western blot analysis. The class given is cell-based. Background: A western blot detects proteins with antibodies after separation by electrophoresis.

The target of series [2] is T1, Protein deacetylase HDAC6 (Homo sapiens). Kind of series: Inhibition of HDAC6 in human A549 cells assessed as increase in acetylated tubulin levels at 1 to 10 uM after 24 hrs by Western blot analysis. It counts as cell-based.
For series [3], the target named is Histone deacetylase 3 (Homo sapiens, UniProt O15379). Briefly: Inhibition of recombinant human HDAC3 expressed in baculovirus infected High5 insect cells using Ac-Lys-Tyr-Lys(epsilon-acetyl)-AMC as substrate after 24 hrs by fluorescence assay.
Series [4] has as its system HCT-116. Kind of series: Antiproliferative activity against human HCT116 cells after 72 hrs by SRB assay. It counts as functional, cell-based. As to conditions: HCT-116, 72 h. (Sulforhodamine B stains cellular protein and so reports cell mass.)
Series [5] deals with A549. Kind of series: Antiproliferative activity against human A549 cells after 72 hrs by SRB assay. It counts as functional, cell-based. As to conditions: A549, 72 h.
Series [6] has as its target Histone deacetylase 1 (Homo sapiens, UniProt Q13547). Kind of series: Inhibition of recombinant human HDAC1 expressed in baculovirus infected High5 insect cells using Ac-Lys-Tyr-Lys(epsilon-acetyl)-AMC as substrate after 24 hrs by fluorescence assay.
Series [7] deals with T2, Protein deacetylase HDAC6 (Homo sapiens, UniProt Q9UBN7).
T2 sequence (Q9UBN7 whole entry): T1 sequence (whole entry)
Kind of series: Inhibition of recombinant human HDAC6 expressed in baculovirus infected High5 insect cells using Boc-Lys (epsilon-acetyl)-AMC as substrate after 3 hrs by fluorescence assay.

Series [8] addresses T1, Protein deacetylase HDAC6 (Homo sapiens). Briefly: Inhibition of HDAC6 in human A549 cells assessed as increase in acetylated tubulin levels at 0.03 to 3 uM after 24 hrs by Western blot analysis. The class given is cell-based.
For series [9] the target is unchanged. Briefly: Inhibition of HDAC6 in human HCT116 cells assessed as increase in acetylated tubulin levels at 0.03 to 3 uM after 24 hrs by Western blot analysis. The class given is cell-based.
Series [10] shares this target. Kind of series: Inhibition of HDAC6 in human HCT116 cells assessed as increase in acetylated tubulin levels at 0.3 to 30 uM after 24 hrs by Western blot analysis. It counts as cell-based.
Series [11] is described as follows: Stability of the compound in mouse plasma at 50 uM by HPLC analysis. The class given is ADME, cell-free.
The nature of series [12]: Stability of the compound in human plasma at 50 uM by HPLC analysis. It counts as ADME, cell-free.
Series [13] in a line: Stability of the compound in PBS at pH 6 at 50 uM by HPLC analysis. The class given is physicochemical. The note with it: buffer, pH 6, 50 µM.
The target in series [14] is T1, Protein deacetylase HDAC6 (Homo sapiens). Briefly: Inhibition of HDAC6 in human A549 cells assessed as increase in acetylated tubulin levels at 0.3 to 30 uM after 24 hrs by Western blot analysis. It counts as cell-based.
A short description of series [15]: Stability of the compound in PBS at pH 7.4 at 50 uM by HPLC analysis. The note with it: buffer, pH 7.4, 50 µM. It counts as physicochemical.
Series [16] in a line: Half life in PBS at pH 7.4 at 50 uM by HPLC analysis. The class given is physicochemical.
A short description of series [17]: Half life in human plasma at 50 uM by HPLC analysis. It counts as ADME, cell-free.
Series [18] is described as follows: Half life in mouse plasma at 50 uM by HPLC analysis. The class given is ADME, cell-free.

Chain of Histone deacetylase 3 (O15379 whole entry): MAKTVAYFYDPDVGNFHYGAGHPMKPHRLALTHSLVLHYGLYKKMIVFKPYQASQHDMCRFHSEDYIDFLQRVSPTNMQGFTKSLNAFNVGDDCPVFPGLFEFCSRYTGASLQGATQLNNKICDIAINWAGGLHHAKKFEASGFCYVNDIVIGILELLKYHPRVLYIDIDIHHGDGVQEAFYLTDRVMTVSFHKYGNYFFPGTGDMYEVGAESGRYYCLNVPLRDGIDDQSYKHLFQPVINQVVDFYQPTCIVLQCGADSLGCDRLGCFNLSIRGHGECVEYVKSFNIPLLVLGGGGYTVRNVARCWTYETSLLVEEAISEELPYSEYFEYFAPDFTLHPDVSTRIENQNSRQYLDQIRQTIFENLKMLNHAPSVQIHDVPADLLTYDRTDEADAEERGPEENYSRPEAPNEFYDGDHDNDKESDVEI
Chain of Histone deacetylase 1 (Q13547 whole entry): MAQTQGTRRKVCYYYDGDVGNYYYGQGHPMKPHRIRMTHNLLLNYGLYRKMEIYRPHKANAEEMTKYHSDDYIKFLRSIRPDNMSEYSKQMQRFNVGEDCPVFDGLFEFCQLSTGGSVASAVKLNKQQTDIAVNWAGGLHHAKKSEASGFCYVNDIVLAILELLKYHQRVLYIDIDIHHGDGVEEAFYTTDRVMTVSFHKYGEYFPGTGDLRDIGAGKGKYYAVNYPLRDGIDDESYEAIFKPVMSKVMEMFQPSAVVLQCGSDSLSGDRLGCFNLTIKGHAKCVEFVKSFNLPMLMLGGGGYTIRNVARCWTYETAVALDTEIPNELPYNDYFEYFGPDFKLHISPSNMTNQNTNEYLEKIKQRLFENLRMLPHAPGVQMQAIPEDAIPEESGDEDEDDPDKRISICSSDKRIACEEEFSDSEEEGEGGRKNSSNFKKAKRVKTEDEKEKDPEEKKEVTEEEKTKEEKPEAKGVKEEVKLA

As to `CCc1c2c(nc3ccc(O)cc13)-c1cc3c(c(=O)n1C2)COC(=O)[C@@]3(CC)OC(=O)CCCCCCC(=O)O`, the inhibition entry in series [1] and in [2] was “Active” each time. In addition, the half-inhibitory concentration (IC50) in series [3] stood at 37200 nM; in series [4] it was 29 nM; in series [5], 129 nM; in [6], 27100 nM; in series [7], 6940 nM.
With `CCc1c2c(nc3ccc(OC(=O)N4CCN(C(=O)CCCCCCCCCC(=O)NO)CC4)cc13)-c1cc3c(c(=O)n1C2)COC(=O)[C@]3(O)CC`, the inhibition result in series [8] and in series [9] was “Active” each time. The half-maximal inhibitory concentration (IC50) in series [3] turned out to be 24600 nM; in [4], 3220 nM; in series [5] it was 6730 nM; in series [6], 17400 nM; in series [7], 4700 nM.
As to `CCc1c2c(nc3ccc(OC(=O)N4CCN(C(=O)CCCCCCCCCCC(=O)NO)CC4)cc13)-c1cc3c(c(=O)n1C2)COC(=O)[C@]3(O)CC`, the results for the 50% inhibitory concentration (IC50) in series [3], in series [6] and in series [7] were 27300 nM, 11000 nM and 3570 nM, respectively.
Consider `CCc1c2c(nc3ccc(OC(=O)N4CCN(C(=O)CCCCCCC(=O)NO)CC4)cc13)-c1cc3c(c(=O)n1C2)COC(=O)[C@]3(O)CC`, for which the inhibition result in series [10] and in series [14] was “Active” throughout. For the same compound, the Stability entry in series [11] was “Unstable”; in series [12] it was “Stable”; in series [13], “Stable”; in series [15], “Stable”. In addition, the 50% inhibitory concentration (IC50) in [3] was found to be 9320 nM; in [4], 6240 nM; in series [5] it was 7230 nM; in [6] it was 5570 nM; in series [7] it was 12200 nM.
For the compound `CCc1c2c(nc3ccc(OC(=O)N4CCN(C(=O)CCCCCCCC(=O)NO)CC4)cc13)-c1cc3c(c(=O)n1C2)COC(=O)[C@]3(O)CC`, the 50% inhibitory concentration (IC50) amounted to 18800 nM in [3], 19700 nM in series [6] and 9040 nM in series [7].
On to `CCc1c2c(nc3ccc(O)cc13)-c1cc3c(c(=O)n1C2)COC(=O)[C@@]3(CC)OC(=O)CCCCCCC(=O)NO`, for which the inhibition result in series [1] and in series [2] was “inactive” throughout. Also, the Stability entry in [11] was “Unstable”; in series [12], “Stable”; in series [13], “Stable”; in [15], “Stable”. The IC50 was 100 nM in series [3]; 88 nM in series [4]; 612 nM in series [5]; 90 nM in [6]; 250 nM in [7].
On to `CCc1c2c(nc3ccc(O)cc13)-c1cc3c(c(=O)n1C2)COC(=O)[C@@]3(CC)OC(=O)CCCCCCCCCC(=O)NO`, for which the figures for the IC50 in series [3], in series [6] and in series [7] were 5330 nM, 6180 nM and 610 nM, respectively.
For `CCc1c2c(nc3ccc(OC(=O)N4CCN(C(=O)CCCCCCCCC(=O)NO)CC4)cc13)-c1cc3c(c(=O)n1C2)COC(=O)[C@]3(O)CC` the same measures were 25400 nM, 30100 nM and 7020 nM.
Consider `CCc1c2c(nc3ccc(O)cc13)-c1cc3c(c(=O)n1C2)COC(=O)[C@@]3(CC)OC(=O)CCCCCCCCC(=O)NO`, for which the results for the IC50 in [3], in series [6] and in series [7] were 780 nM, 710 nM and 320 nM, respectively.
With `CCc1c2c(nc3ccc(O)cc13)-c1cc3c(c(=O)n1C2)COC(=O)[C@@]3(CC)OC(=O)CNC(=O)CCCCCCC(=O)NO`, the half-life at 50 µM in series [16] was 5 h; in series [17], 6 h; in series [18] it was 1 h. For the same compound, the inhibition result in [1] and in series [2] was “inactive” in each case. Besides, the concentration for half-maximal inhibition (IC50) in [3] came out at 1600 nM; in series [4] it was 30.5 nM; in [5], 138 nM; in series [6] it was 1960 nM; in series [7], 860 nM. Also, the Stability result in series [13] was “Unstable”.
As to `CCc1c2c(nc3ccc(O)cc13)-c1cc3c(c(=O)n1C2)COC(=O)[C@]3(O)CC` [7-ETHYL-10-HYDROXYCAMPTOTHECIN], the IC50 is 0.78 nM in series [4] and 1.62 to 7.33 nM in series [5].
As for `CCc1c2c(nc3ccc(O)cc13)-c1cc3c(c(=O)n1C2)COC(=O)[C@@]3(CC)OC(=O)CCCCCC(=O)NO`, the inhibition entry in series [1] and in [2] was “inactive” throughout. Moreover, the IC50 is 100 nM in series [3]; 46.2 nM in [4]; 245 nM in series [5]; 110 nM in series [6]; 220 nM in series [7].
Regarding `CCc1c2c(nc3ccc(OC(=O)N4CCC(N5CCCCC5)CC4)cc13)-c1cc3c(c(=O)n1C2)COC(=O)[C@]3(O)CC` [IRINOTECAN], the IC50 amounted to 1630 nM in series [4] and 1880 nM in series [5].
Consider `CCc1c2c(nc3ccc(O)cc13)-c1cc3c(c(=O)n1C2)COC(=O)[C@@]3(CC)OC(=O)CCCCCCCCCCC(=O)NO`, for which the IC50 in [3] came to 11800 nM; in series [6] it was 12600 nM; in series [7] it was 1070 nM.
For `CCc1c2c(nc3ccc(O)cc13)-c1cc3c(c(=O)n1C2)COC(=O)[C@@]3(CC)OC(=O)CCCCCCCC(=O)NO` the same measures were 990 nM, 970 nM and 210 nM.
For `CCc1c2c(nc3ccc(OC(=O)N4CCN(C(=O)CCCCCC(=O)NO)CC4)cc13)-c1cc3c(c(=O)n1C2)COC(=O)[C@]3(O)CC`, the figures for the concentration for half-maximal inhibition (IC50) in [3] and in [6] were 12000 nM and 13600 nM, respectively.
With `CCc1c2c(nc3ccc(O)cc13)-c1cc3c(c(=O)n1C2)COC(=O)[C@@]3(CC)OC(=O)CNC(=O)CCCCCCC(=O)O`, the inhibition entry in series [1] and in series [2] was “Active” throughout. Moreover, the IC50 in series [3] stood at 34900 nM; in [4], 23.2 nM; in series [5], 111 nM; in series [6], 27700 nM; in [7] it was 8660 nM.

Usually IC50 stands for the concentration that gives 50% inhibition. Broadly, the half-life is the time in which the quantity being followed falls by half. A high value points to slow loss.
